Results published in ChEMBL document CHEMBL1201862, “PubChem BioAssay data set” (2004).
Calls of active or inactive are those of the source.

Assays:
Leucine aminopeptidase = target: T1, Leucine aminopeptidase (Plasmodium falciparum 3D7, UniProt Q8IL11); experiment: P. falciparum M17LAP inhibitors, primary screen, biochemical, fluorogenic H-Leu-NHMec substrate, 1536-well (AID 1619); assay type: functional
T1 sequence (Q8IL11 whole entry): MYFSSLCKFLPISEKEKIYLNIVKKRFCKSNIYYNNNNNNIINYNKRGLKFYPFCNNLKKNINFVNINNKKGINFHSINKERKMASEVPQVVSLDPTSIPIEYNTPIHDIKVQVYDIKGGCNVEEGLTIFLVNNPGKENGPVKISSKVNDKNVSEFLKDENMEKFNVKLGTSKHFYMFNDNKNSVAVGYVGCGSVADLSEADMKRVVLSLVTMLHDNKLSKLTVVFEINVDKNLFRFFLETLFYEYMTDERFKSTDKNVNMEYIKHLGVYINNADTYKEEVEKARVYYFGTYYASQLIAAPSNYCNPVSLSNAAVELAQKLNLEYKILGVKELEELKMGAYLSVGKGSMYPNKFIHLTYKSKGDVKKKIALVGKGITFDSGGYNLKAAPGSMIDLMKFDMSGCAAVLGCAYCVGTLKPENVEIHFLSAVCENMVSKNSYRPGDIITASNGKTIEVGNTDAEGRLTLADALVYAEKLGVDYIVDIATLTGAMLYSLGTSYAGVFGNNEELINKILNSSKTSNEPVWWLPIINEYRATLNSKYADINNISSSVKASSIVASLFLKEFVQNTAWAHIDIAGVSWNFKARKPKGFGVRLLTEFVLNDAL

[1] = Shn3 3'UTR reporter inhibitors, dose response, cell-based, Clone20 osteoblasts, firefly luciferase, cherry-picked (AID 624132); assay type: functional;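 also: firefly luciferase luminescence from reporter carrying the Shn3 3'UTR in osteoblasts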
[2] = target: T2, Microphthalmia-associated transcription factor (Homo sapiens, UniProt O75030); experiment: TRPM1 promoter luciferase signal decrease, dose response, MITF inhibitor project, cell-based, SK-MEL-5, cherry-picked, set 3 (AID 493073); assay type: functional
T2 sequence (O75030 whole entry): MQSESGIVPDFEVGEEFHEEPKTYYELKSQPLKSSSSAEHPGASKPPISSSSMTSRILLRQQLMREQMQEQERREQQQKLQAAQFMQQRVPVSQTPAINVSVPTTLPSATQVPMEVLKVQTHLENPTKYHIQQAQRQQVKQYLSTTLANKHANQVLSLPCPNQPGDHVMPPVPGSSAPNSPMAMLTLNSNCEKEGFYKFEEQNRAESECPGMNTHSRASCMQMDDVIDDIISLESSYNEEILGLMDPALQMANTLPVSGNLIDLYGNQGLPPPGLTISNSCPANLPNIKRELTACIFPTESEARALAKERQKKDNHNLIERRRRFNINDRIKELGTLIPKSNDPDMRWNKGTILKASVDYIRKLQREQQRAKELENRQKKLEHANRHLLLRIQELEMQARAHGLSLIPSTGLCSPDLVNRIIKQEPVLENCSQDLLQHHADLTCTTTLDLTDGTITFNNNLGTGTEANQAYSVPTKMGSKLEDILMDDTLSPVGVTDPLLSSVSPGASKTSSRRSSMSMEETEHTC

[3] = control 3'UTR Renilla luciferase suppression, dose response, counter-screen for Shn3 inhibitor project, cell-based, Clone20-Shn3RL, cherry-picked (AID 624133); assay type: functional
[4] = HepG2 cell cytotoxicity, dose response, cytotoxicity control for Shn3 inhibitor project, CellTiter-Glo, cherry-picked (AID 624134); assay type: functional, cell-based
[5] = target: T3, Endoribonuclease toxin MazF (Escherichia coli K-12, UniProt P0AE70); experiment: MazF toxin RNase activators, dose response, biochemical, fluorescence, single-stranded RNA substrate, uHTS hits (AID 588481); assay type: functional
T3 sequence (P0AE70 whole entry): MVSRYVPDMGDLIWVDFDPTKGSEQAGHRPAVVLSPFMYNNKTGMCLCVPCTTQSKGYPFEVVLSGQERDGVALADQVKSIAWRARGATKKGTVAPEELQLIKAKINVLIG

Streptokinase A = target: T4, Streptokinase A (Streptococcus pyogenes serotype M1, UniProt P10520); experiment: S. pyogenes streptokinase expression inhibitors, potency, dose response, plasminogen activation absorbance, OD405 (AID 1914); assay type: functional, Streptococcus pyogenes M1 GAS;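 also: secreted streptokinase activity via plasminogen activation per viability signal from cell pellet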
T4 sequence (P10520 whole entry): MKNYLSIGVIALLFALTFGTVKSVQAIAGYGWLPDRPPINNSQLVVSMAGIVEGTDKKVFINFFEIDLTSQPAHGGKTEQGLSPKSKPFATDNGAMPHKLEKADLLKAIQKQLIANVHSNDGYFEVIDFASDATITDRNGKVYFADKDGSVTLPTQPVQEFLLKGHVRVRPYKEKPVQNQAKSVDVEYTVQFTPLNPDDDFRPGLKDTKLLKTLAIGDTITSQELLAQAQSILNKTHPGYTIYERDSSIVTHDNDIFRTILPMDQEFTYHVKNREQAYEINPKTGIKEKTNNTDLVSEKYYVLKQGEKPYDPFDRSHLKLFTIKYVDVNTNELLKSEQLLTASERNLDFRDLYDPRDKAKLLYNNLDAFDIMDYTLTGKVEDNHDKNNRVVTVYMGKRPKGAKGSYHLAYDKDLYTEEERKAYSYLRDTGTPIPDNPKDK

[6] = test system: Streptococcus sp. 'group A'; experiment: growth inhibition of control SK(-) GAS strain, dose response, counter-screen for streptokinase expression inhibitor project, luminescence, kanamycin, BacTiterGlo, confirmation (AID 1900); assay type: functional, organism-based
Streptococcus = experiment: Group A Streptococcus viability loss, dose response, counter-screen for streptokinase expression inhibitor project, luminescence, BacTiterGlo (AID 1915); assay type: functional, organism-based;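 also: potency for reduction of bacterial viability or growth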
[7] = target: T3, Endoribonuclease toxin MazF; experiment: fluorescent RNA oligo signal without MazF, dose response, counter-screen for MazEF activator project, biochemical, fluorescence, single-stranded RNase substrate (AID 588502); assay type: functional
[8] = target: T5, Corticotropin-releasing factor receptor 2/Corticotropin-releasing factor-binding protein (Homo sapiens, UniProt P24387+Q13324); experiment: activators of CRF receptor 2 with binding protein – uHTS hits, confirmation (AID 602473); assay type: functional; conditions: read-out: EC50_Mean
T5 sequence (Q13324 whole entry): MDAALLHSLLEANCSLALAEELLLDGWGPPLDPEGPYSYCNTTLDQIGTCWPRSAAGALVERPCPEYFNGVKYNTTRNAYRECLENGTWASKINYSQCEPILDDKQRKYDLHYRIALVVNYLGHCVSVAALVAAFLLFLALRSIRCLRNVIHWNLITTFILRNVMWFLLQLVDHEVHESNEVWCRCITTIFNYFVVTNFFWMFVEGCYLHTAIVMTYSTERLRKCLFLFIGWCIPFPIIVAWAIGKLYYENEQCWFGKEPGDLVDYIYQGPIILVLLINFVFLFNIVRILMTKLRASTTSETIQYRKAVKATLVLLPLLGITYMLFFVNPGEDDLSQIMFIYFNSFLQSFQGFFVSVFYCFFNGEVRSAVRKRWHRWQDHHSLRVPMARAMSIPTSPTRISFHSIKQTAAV
T5 sequence (P24387 whole entry): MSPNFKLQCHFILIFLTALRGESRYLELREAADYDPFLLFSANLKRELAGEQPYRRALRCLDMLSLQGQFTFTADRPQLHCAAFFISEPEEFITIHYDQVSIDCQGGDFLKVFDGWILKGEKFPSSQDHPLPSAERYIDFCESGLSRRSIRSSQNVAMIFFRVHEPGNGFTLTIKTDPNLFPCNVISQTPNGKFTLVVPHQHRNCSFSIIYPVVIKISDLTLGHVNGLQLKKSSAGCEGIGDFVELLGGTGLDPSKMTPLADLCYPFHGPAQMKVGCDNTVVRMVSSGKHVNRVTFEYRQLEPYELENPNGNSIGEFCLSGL

Paired box protein Pax-8 = Paired box protein Pax-8 (Homo sapiens, UniProt Q06710); experiment: inhibitors of PAX8-driven TPO luciferase reporter, dose response, RMG-I cells, cherry-pick (AID 687027); assay type: functional, cell-based;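 also: luciferase reporter driven by Pax8 target thyroperoxidase promoter measured by SteadyGlo luminescence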
[9] = target: T6, DNA repair protein RAD52 homolog (Homo sapiens, UniProt P43351); assay type: functional, biochemical
T6 sequence (P43351 whole entry): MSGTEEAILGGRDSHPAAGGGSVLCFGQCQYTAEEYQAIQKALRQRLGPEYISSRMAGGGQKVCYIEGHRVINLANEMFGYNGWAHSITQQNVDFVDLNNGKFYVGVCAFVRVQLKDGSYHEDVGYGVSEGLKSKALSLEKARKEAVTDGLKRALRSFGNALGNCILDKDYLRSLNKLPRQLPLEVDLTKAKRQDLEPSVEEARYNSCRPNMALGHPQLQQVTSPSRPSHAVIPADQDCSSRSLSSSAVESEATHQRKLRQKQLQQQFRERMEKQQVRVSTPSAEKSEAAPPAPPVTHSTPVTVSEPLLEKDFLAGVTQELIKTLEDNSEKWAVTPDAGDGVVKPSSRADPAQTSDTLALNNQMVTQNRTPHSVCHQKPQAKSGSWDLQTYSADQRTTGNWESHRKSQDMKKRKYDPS

[10] = target: T7, RNA-binding protein pos-1 (Caenorhabditis elegans, UniProt G5EF15); experiment: inhibitors of POS-1/mex-3 RNA binding, dose response, biochemical, fluorescence polarization (AID 1964);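 also: purified POS-1 fused to maltose binding protein made in E. coli; potency of compounds blocking POS-1 binding to fluorescent RNA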
T7 sequence (G5EF15 whole entry): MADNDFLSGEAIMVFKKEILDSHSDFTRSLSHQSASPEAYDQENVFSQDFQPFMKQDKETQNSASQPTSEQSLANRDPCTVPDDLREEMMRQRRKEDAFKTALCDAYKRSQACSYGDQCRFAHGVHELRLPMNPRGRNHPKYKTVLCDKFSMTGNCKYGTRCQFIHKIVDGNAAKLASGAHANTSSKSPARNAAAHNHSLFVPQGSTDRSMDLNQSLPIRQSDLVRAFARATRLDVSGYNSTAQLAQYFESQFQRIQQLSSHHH

[11] = target: T8, Zinc finger protein mex-5 (Caenorhabditis elegans, UniProt Q9XUB2); experiment: MEX-5/TCR-2 RNA interaction inhibitors, dose response, biochemical, C. elegans, fluorescence polarization (AID 1960)
T8 sequence (Q9XUB2 whole entry): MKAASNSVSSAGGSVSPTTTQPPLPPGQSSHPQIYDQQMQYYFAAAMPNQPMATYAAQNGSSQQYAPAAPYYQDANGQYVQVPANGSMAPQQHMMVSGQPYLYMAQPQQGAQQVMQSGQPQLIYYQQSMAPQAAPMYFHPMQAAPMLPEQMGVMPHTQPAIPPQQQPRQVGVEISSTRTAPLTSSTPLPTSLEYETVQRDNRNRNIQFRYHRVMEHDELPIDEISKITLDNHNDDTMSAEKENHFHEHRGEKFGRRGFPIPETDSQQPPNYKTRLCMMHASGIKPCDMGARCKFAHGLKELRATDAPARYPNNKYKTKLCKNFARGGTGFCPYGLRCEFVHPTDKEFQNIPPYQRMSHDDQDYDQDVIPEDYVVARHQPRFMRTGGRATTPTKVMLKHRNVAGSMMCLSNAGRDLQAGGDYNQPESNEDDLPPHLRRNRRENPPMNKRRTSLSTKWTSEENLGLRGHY

Sequence of Paired box protein Pax-8 (Q06710 whole entry): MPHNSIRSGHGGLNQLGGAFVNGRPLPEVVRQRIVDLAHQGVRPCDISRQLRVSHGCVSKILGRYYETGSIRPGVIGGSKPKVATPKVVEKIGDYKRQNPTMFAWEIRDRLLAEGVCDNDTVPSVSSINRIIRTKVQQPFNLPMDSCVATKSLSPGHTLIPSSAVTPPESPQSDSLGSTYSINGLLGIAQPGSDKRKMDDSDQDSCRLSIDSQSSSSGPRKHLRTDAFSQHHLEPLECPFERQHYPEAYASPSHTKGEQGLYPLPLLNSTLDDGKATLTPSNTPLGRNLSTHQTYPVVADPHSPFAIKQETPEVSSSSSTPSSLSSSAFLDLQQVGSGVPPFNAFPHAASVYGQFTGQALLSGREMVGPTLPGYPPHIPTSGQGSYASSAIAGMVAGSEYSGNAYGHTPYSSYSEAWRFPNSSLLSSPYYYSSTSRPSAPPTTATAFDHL

CCOc1ccc(NC(=O)CSc2n[nH]c(N)n2)c([N+](=O)[O-])c1
IC50 (Leucine aminopeptidase): 12.7 µM (active)

O=C(c1ccco1)c1c[nH]nc1-c1ccc(Cl)cc1O
IC50 (Leucine aminopeptidase): 101 µM (active)

CC(=O)Nc1nc(C)c(-c2csc(Nc3cccc(C(C)=O)c3)n2)s1
AC50 [1]: 1.67 µM (active)
AC50 [2]: 8.38 µM (active)
AC50 [3]: < 0.5 µM (active)
AC50 [4]: 21 µM (active)

N#C/C(=C(/O)c1ccc([N+](=O)[O-])o1)c1nc2ccccc2[nH]1
EC50 [5]: > 99 µM (inactive)
EC50 (Streptokinase A): 27.6 µM (active)
EC50 [6]: 3.57 µM (active)
AC50 [2]: 3.8 µM (active)
EC50 (Streptococcus): 66 µM (active)
EC50 [7]: 5.53 µM (active)

Cc1cc(/C=C2\C(=O)NC(=O)N(c3cccc(Br)c3)C2=O)c(C)n1C
EC50 [5]: > 99 µM (inactive)
EC50 [8]: 26.2 µM (active)
EC50 [7]: > 99 µM (inactive)

CN(C)CC(C(=O)Cc1ccccc1)c1ccccc1 (centres undefined)
AC50 [1]: 7.81 µM (active)
AC50 (Paired box protein Pax-8): 1.71 µM (active)
AC50 [3]: 7.58 µM (active)
AC50 [4]: 14.5 µM (active)

CN1CCN(CCCNc2nc3ccccc3c3nc(-c4ccccc4)nn23)CC1
AC50 [9]: 14.2 µM (active)

COc1nccnc1NS(=O)(=O)c1ccc(/N=C/c2c(C)[nH]n(-c3ccccc3)c2=O)cc1
IC50 (Leucine aminopeptidase): 35 µM (active)

CCN1CCN(Cc2c(C(=O)N/N=C(\C)c3ccc(Cl)cc3)nnn2-c2nonc2N)CC1
AC50 [9]: 8.73 µM (active)
EC50 [10]: > 300 µM (not active)
EC50 [11]: > 300 µM (not active)
